Data on 1 compound can be found in patent US8202886B2, “Small molecule E2F inhibitor” (H. Lee Moffitt Cancer Center and Research Institute, Inc., priority 2008, dated 2012).

Each structure is given as a SMILES string.

The subject of test [1] is H292. Kind of test: Western blots of treated H292 cells. The class given is cell-based. As for the experimental part: (§1) In order to further examine the mechanism of action of the therapeutic compound four lung cancer cell lines were treated with various concentrations of drug and western blots performed on cell extracts after 24 hr.
(A western blot detects proteins with antibodies after separation by electrophoresis.)

Test [2] relates to human foreskin fibroblasts (HFF). The experiment in a line: Apo-BrdU TUNEL apoptosis assay, HFF. The class given is cell-based. Particulars: 40-μM, 24-hrs. From the text: (§2) To determine if treatment with the therapeutic compound contributes to apoptosis, Cells were detached from culture plates by trypsin treatment, washed twice with PBS, and fixed in 70% ethanol. Fixed cells were washed twice with PBS and treated with RNase A and propidium iodide (PI). PI staining was examined using a Becton-Dickinson FACScan instrument and Cell Quest software. TUNEL assay for apoptosis utilized a Pharmingen APO-BRDU Kit. MTS (3-(4,5-dimethylthiazol-2-yl)-5-(3-carboxymethoxyphenyl)-2-(4-sulfophenyl)-2H-tetrazolium, inner salt) assays were conducted using a CellTiter 96® AQueous One Cell Proliferation Assay Kit (Promega).
(§3) A375, MDA-MB-231 (231), MCF-7 and human foreskin fibroblasts (HFF) cells were treated with 40-μM of the therapeutic compound for 24-hrs and subjected to a FACS based terminal deoxynucleotidyl transferase (TUNEL) assay (Apo-BrdU Kit from BD Pharmingen).

The test system of test [3] is breast cancer cell lines. Kind of test: Western blots of Rb family members in breast cancer cell lines. The class given is cell-based. To be noted: 40 micromolar, 24 hrs.
Test [4] concerns H1299. Kind of test: Western blots of treated H1299 cells. The class given is cell-based. As for the experimental part:
as §1

Test [5] deals with A375 cells. Kind of test: MTS proliferation/viability over time. To be noted: 40 μM, 24-, 48- and 72-hrs. The class given is cell-based, human. Here is the method: To examine its effect on a range of commonly studied cell lines, the inventors utilized standard MTS assays to quantify cell viability following the therapeutic compound treatment. Cytotoxicity was determined using MTS assays, which were conducted using a CellTiter 96® AQueous One Cell Proliferation Assay Kit (Promega) following the published protocol. […] Plates were read at 490 nm following 4 hrs MTS reaction time. The concentration of drug which produced a 50% inhibition of growth (IC50) was calculated from linear regression analysis of the linear portion of the growth curves.

For test [6], the system named is E2F4-deficient MEFs. Kind of test: Apoptosis (ApoBrdU, PARP western) in E2F4-deficient MEFs. The class given is cell-based, mouse. As for the experimental part: (§4) FIG. 12A: MEFS derived from sibling WT and E2F4^−/− mice were treated for 24-hrs with the indicated doses of HLM006474. Apoptosis was determined using ApoBrdU (BD Pharmingen).
(§5) FIG. 12B: MEFS derived from sibling WT and E2F4^−/− mice were treated as in A subjected to western blotting using a PARP antibody or E2F4 antibody. PARP cleavage (as indicated by the arrow) is an independent measure of apoptosis.
(§6) To determine if the effect of the therapeutic compound is dependent upon E2F4, the inventors compared the therapeutic compound response of immortalized MEFs derived from E2F4-deficient mice with MEFS derived from wildtype siblings.

In test [7] the test system is H358. The experiment in a line: Western blots of treated H358 cells. The class given is cell-based. To be noted: H358, 40 micromolar, 24 hrs. As for the experimental part: The indicated NSCLC lines were treated with 40 micromolar the therapeutic compound and subjected western blotting 24 hrs later using the indicated antibodies.
The subject of test [8] is 8226-s. The experiment in a line: MTS viability assay, 8226-s. The class given is cell-based. To be noted: Homo sapiens; 8226-s parental. As for the experimental part:
(§7) Cells were collected 24 hours post drug exposure and extracts subjected to western blotting using antibodies to the indicated proteins. Cleavage of PARP indicates apoptosis.
(§8) To examine its effect on a range of commonly studied cell lines, the inventors utilized standard MTS assays to quantify cell viability following the therapeutic compound treatment. Cytotoxicity was determined using MTS assays, which were conducted using a CellTiter 96® AQueous One Cell Proliferation Assay Kit (Promega) following the published protocol. Cells in 0.1 ml volume were plated in triplicate into 96-well plates, 1×10^4 cells/well. the therapeutic compound was added and after 24 hours of incubation at 37° C., 20 μl of MTS dye was added to each well. Plates were read at 490 nm following 4 hrs MTS reaction time. The concentration of drug which produced a 50% inhibition of growth (IC50) was calculated from linear regression analysis of the linear portion of the growth curves.
(Formazan colour is commonly taken as a measure of viable cells.)

Test [9] has as its system NCI60 cell lines. Kind of test: NCI60 drug screen. Particulars: NCI standard concentration. The class given is cell-based. An excerpt: FIG. 16: HLM006474 was submitted to the National Cancer Institutes Developmental Therapeutic Program NCI60 Drug Screening Program. […] Results are reported as mean growth percent less growth percent.
The therapeutic compound was submitted to the NCI60 drug screen.

Test [10] deals with 231 cells. Kind of test: RNase protection assay, 231. The class given is cell-based, human. As for the experimental part: The indicated breast cancer lines were treated with 40 micromolar the therapeutic compound and subjected RNAse protection assay 24 hrs later using the indicated probes.
An RNase protection assay was performed to determine if downregulation of the Rb family members at the level of mRNA could account for the downregulation of the proteins. Two breast cancer cell lines were examined at 0, 3, 6, 9, 18 and 24 hr following the therapeutic compound treatment (FIG. 21).

Test [11] concerns A549. The experiment in a line: Western blots of treated A549 cells. The class given is cell-based. As for the experimental part: as §1
Test [12] relates to WT MEFS. Kind of test: Apoptosis (ApoBrdU, PARP western) in WT MEFs. The class given is cell-based, mouse. As for the experimental part:
as §4, §5, §6

The test system of test [13] is 8226-MR20. Kind of test: MTS viability assay, 8226-MR20. The class given is cell-based. To be noted: Homo sapiens. Here is the method: as §7, §8
The subject of test [14] is A375. The experiment in a line: Apo-BrdU TUNEL apoptosis assay, A375. The class given is cell-based, human. Particulars: 40-μM, 24-hrs.
From the text: as §2, §3

The test system of test [15] is MCF-7. Kind of test: Apo-BrdU TUNEL apoptosis assay, MCF-7. The class given is cell-based, human. To be noted: 40-μM, 24-hrs.
From the text: as §2, §3

For the compound `CCOc1ccc(C(Nc2ccccn2)c2ccc3ccc(C)nc3c2O)cc1C` (stereo not shown) [HLM006474], the “Mcl-1 (western)” value in test [1] (H292, 40-μM) is on record as “downregulation of Mcl-1”; in test [4] (H1299, 40-μM), “no change”; in [11] (A549, 40-μM), “downregulation of Mcl-1”. The “sensitivity (downregulation of E2F1 and E2F4, PARP cleavage)” value in test [1] (H292, various concentrations, 24 hr) is given as “limited sensitivity”; in [4] (H1299, various concentrations, 24 hr) it was “very sensitive”; in [11] (A549, various concentrations, 24 hr), “limited sensitivity”. The “apoptosis (TUNEL)” value in test [2] is recorded as “did not induce an obvious increase in apoptosis”; in test [14], “dramatic induction of apoptosis”; in test [15], “did not induce an obvious increase in apoptosis”. For the same compound, the “Rb and p107 proteins (western)” value in test [3] is “dramatically down regulated”. The “Bcl-2 (western)” value in test [4] (H1299, 40-μM) is “significant downregulation”. In [5], the “cellular proliferation/viability (MTS)” value is reported as “significantly affected”. Besides, the “sensitivity of E2F4 knockout MEFs versus cells from littermate animals” value in test [6] is recorded as “less sensitive”. In test [6] (E2F4-deficient MEFs), the “concentration required to detect PARP cleavage” value was determined as 60 µM. The “cyclin A or E2F1 (western)” value in test [7] is listed as “no decrease”. For the same compound, the IC50 in test [8] stood at 36 ± 6 µM; in [13], 46 ± 6 µM. Moreover, the “growth inhibition in NCI60 cell lines” value in [9] is given as “significantly growth inhibited”. Besides, the “Rb at the mRNA level” value in test [10] was “no significant change”. For the same compound, the “p21 mRNA” value in test [10] was “upregulated”. In addition, in [12] (24-hrs, ApoBrdU), the “level of apoptosis in WT cells as compared to E2F4-deficient cells” value is given as “two-fold increase”. Besides, the “concentration at which PARP cleavage is evident” value in [12] (E2F4 proficient MEFs) is 20 µM.

Usually IC50 stands for the concentration that inhibits the measured activity by half.
